# Read-outs that look alike come from different tables or passages of the source.
# Key:
# [1] = test system: Acyclovir-resistant HSV-1 (HSV-AR); assay: microbe, parasite or virus in culture; format: cell-based; settings: Human alphaherpesvirus 1, Vero, read-out: EC50 HSV-AR
# Description: (§1) African green monkey kidney cells (Vero, ATCC CCL-81) and human epithelial carcinoma cells (HEp-2, ATCC CCL-23 and A549, ATCC CCL-185) were maintained in Dulbecco’s modified Eagle’s medium (DMEM), modified Eagle’s medium (MEM) and RPMI-1640 medium, respectively, supplemented with 10% fetal bovine serum (Gibco), 100 units/mL penicillin, and 100 μg/mL streptomycin. All the cell lines were cultured at 37°C with 5% CO2. HSV-1F (ATCC VR-733) and HSV-2G (ATCC VR-734) stocks were propagated in Vero cells, aliquoted and stored at -80°C. ACV-resistant HSV-1 was generated in our previous study.
# (§2) 1X 10^6 Vero cells were seeded onto 6-well culture plates for 24 hours and infected with 100 pfu/well virus at 37°C for 1 hour. […] After 3 days, the cells were fixed with 3.7% formaldehyde and stained with crystal violet. The plaques were counted.
# HSV-1 [2] = assay: Plaque reduction assay; format: cell-based; settings: for EC50: read-out: EC50 HSV-1
# Description: as §1, §2
# HSV-2 = assay: Plaque reduction assay; format: cell-based; settings: for EC50: read-out: EC50 HSV-2
# Description: as §1, §2
# MTT cytotoxicity assay = format: cell-based, African green monkey; settings: African green monkey
# Description: (§3) All the cell lines were cultured at 37°C with 5% CO2. […] ACV-resistant HSV-1 was generated in our previous study.
# (§4) The cells were washed with PBS, added with 0.1 mg/mL MTT reagent [3-(4,5-dimethylthiazol-2-yl)-2,5-diphenyl tetrazolium bromide; Sigma] and incubated at 37°C for 5 hours. After incubation, MTT reagent was removed and DMSO was added to each well. The absorbance was then determined by ELISA reader (SpectraMAX 340, Molecular Devices) at the wavelength of 550 nm.
# Vero cells = assay: MTT cytotoxicity assay; format: cell-based, African green monkey; settings: Vero cells, MTT
# Description: as §3, §4
# NF-κB = NF-κB translocation analysis by Western blot of nuclear fractions; format: cell-based; settings: HSV-1 infection, nuclear fraction at 3 h.p.i.
# Excerpt: During HSV infection, there are two waves of NF-κB activation. The first-wave of NF-κB activation could enhance ICP0 transcription via binding onto viral ICP0 promoter while the second-wave of NF-κB activation could prevent host cells from apoptosis. […] The nuclear fractions were extracted and applied to NF-κB translocation analysis by Western blot assay. […] After transfection, luciferase activity of pGL-ICP0 Wt transfected cells increased up to 3,000-fold compared with the vector control, pGL, in HSV-1 infection. […] Although it is well known the expression of ICP0 is regulated by NF-κB, the exact NF-κB binding site on ICP0 promoter is not identified yet. […] Only one NF-κB binding site was predicted within the HSV-1 ICP0 promoter. To determine whether the HCWEs-mediated ICP0 suppression was NF-κB-dependent, the predicted NF-κB binding site within pGL-ICP0 Wt was mutated by PCR-based mutagenesis and the resulting plasmid was named as pGL-ICP0 Mut. […] The results implied that HSV-1 ICP0 promoter activity was at least partly regulated by NF-κB.
# HSV-1 [3] = assay: Virus pre-treatment assay (plaque assay); format: cell-based; settings: 100 pfu HSV-1 pretreated, Vero cells, Fig. 9A
# Description: After incubation, HCWEs-pretreated cells were washed with PBS and then infected with 100 pfu HSV. The inhibitory activities were analyzed by plaque assay. […] After 3 hours of incubation, 1X10^6 Vero cells were infected with HCWEs-pretreated virus and then analyzed by plaque assay.
# HSV-1 [4] = assay: Virus binding to Vero cells, Western blot of cell-bound virus gD; format: cell-based; settings: 1 m.o.i., 4°C
# [5] = Human alphaherpesvirus 1, Vero cells
# [6] = Human alphaherpesvirus 2, Vero cells
# [7] = Vero cells, MTT, read-out: CC50
Compound,EC50 (HSV-1 [2]; [5]),EC50 (HSV-2; [6]),CC50 at 3 days (MTT cytotoxicity assay; [7]),SI HSV-1 (CC50/EC50) (HSV-1 [2]),inhibition of HSV-1 by pretreatment of virus with pure compound (HSV-1 [3]),cell binding ability of HSV-1 (Western blot) (HSV-1 [4]),further results
"Nc1nc2c(ncn2COCCO)c(=O)[nH]1 [Acyclovir, acyclovir, reference compound]",0.74 µg/mL,0.82 µg/mL,> 450 µg/mL,–,–,–,EC50 [1]: 14 µg/mL
"O=C(/C=C/c1ccc(O)c(O)c1)O[C@@H]1C[C@](O)(C(=O)O)C[C@@H](O)[C@H]1O [Chlorogenic acid, chlorogenic acid]",> 1240 µg/mL,> 1240 µg/mL,1240 µg/mL,–,–,–,–
"O=c1c(O[C@@H]2O[C@H](CO)[C@H](O)[C@H](O)[C@H]2O)c(-c2ccc(O)c(O)c2)oc2cc(O)cc(O)c12 [Hyperin, hyperin]",–,–,–,–,–,–,EC50 HSV-1 (HSV-1 [2]; Vero cells): >500 µg/mL; EC50 HSV-2 (HSV-2; Vero cells): >500 µg/mL; CC50 (Vero cells): >500 µg/mL
"O=c1c(O[C@@H]2O[C@H](CO)[C@@H](O)[C@H](O)[C@H]2O)c(-c2ccc(O)c(O)c2)oc2cc(O)cc(O)c12 [Isoquercitrin, isoquercitrin]",0.42 µg/mL,0.39 µg/mL,> 200 µg/mL,>476.2,not,not,HSV-induced NF-κB translocation / activation (NF-κB): inhibited NF-κB activation
"O=c1c(O)c(-c2ccc(O)c(O)c2)oc2cc(O)cc(O)c12 [Quercetin, quercetin]",52.9 µg/mL,70 µg/mL,486 µg/mL,9.18,targeted virus particles directly and inhibited viral entry,inhibited the binding of HSV-1 onto host cells,SI HSV-2 (CC50/EC50) (HSV-2): 6.94; HSV-induced NF-κB translocation / activation (NF-κB): inhibited NF-κB activation
"C[C@@H]1O[C@@H](Oc2c(-c3ccc(O)c(O)c3)oc3cc(O)cc(O)c3c2=O)[C@H](O)[C@H](O)[C@H]1O [Quercitrin, quercitrin]",–,–,142 µg/mL,–,–,–,"EC50 (HSV-1 [2]; Human alphaherpesvirus 1, Vero): > 142 µg/mL; EC50 (HSV-2; Human alphaherpesvirus 2, Vero): > 142 µg/mL"
"C[C@@H]1O[C@@H](OC[C@H]2O[C@@H](Oc3c(-c4ccc(O)c(O)c4)oc4cc(O)cc(O)c4c3=O)[C@H](O)[C@@H](O)[C@@H]2O)[C@H](O)[C@H](O)[C@H]1O [Rutin, rutin]",188 µg/mL,169 µg/mL,–,3.745,not,not,SI HSV-2 (CC50/EC50) (HSV-2): 4.146; CC50 at 3 days (MTT cytotoxicity assay): 702 µg/mL
